Experimental data taken from patent US20240307375A1, “PHARMACEUTICAL COMPOSITION FOR PREVENTING AND/OR TREATING KIDNEY INJURY, AND AUTOPHAGY ACTIVATOR” (OSAKA UNIVERSITY, priority 2021, published 2024).

Assays:
A549 cells = assay: LC3-II Western blotting in A549 cells with or without Bafilomycin A1; assay type: cell-based, human; conditions: 10 μM test compound, 6 hours, Bafilomycin A1 250 nM
Method: A549 cells (1.0×10^5 cells/well), i.e., human lung tumor cells, were seeded in a 6-well plate containing DMEM medium and cultured for 1 day, and the cells were washed with PBS.
A DMEM medium containing Bafilomycin Al (final concentration: 250 nM; also referred to as “Baf”) (Baf(+)) and a DMEM medium not containing Baf (Baf(−)) were prepared. Additionally, a Baf-containing DMEM medium with DMSO or Compound 011 (the test compound) and a Baf-free DMEM medium with DMSO or Compound 011 (the test compound) were also prepared, thus preparing a total of six different media. The final concentration of DMSO was 0.1% and the final concentration of the test compound was 10 μM. Separately, an Earle's balanced salt solution (EBSS; starvation) containing Baf and an EBSS not containing Baf were also prepared. 3 mL of one of the six types of media and two types of EBSSs was added to each well containing washed cells, followed by culturing for 6 hours. After washing the cells three times with PBS, RIPA buffer was added at 4° C., and the cells were allowed to stand on ice for 30 minute. The cells were then quickly and carefully collected from the wells. After the cells were collected, centrifugation (15000 rpm, 4° C., 30 min) was performed, and the supernatant was collected to obtain a protein solution. […]

[1] = system: p53-positive cells / p62-positive dots (DNA damage, autophagy substrate); assay: p53 and p62 immunostaining of renal cortex after cisplatin administration; assay type: in vivo, mice; conditions: cisplatin 15 mg/kg i.p. plus test compound 10 mg/kg orally
Method: The kidneys of mice were collected as in Test Example 1. The kidneys were subjected to autoclaving at 120° C. for 10 minutes in a […] citrate buffer (pH of 6.0) for […] and to blocking with 1.5% bovine serum albumin in PBS for 60 minutes. Subsequently, paraffin embedding was performed to prepare section samples of renal cortex of the four groups.
The sections were incubated overnight at 4° C. with p53 or p62 primary antibodies.
For each group (n=2 to 4), the number of p53-positive cells or p62-positive dots were counted in fields at a magnification of 200× (p53) or 400× (p62) to calculate the average values.

[2] = system: Kidney Injury Induced by Cisplatin Administration; assay: Cisplatin-induced kidney injury in mice, PAS histology of renal cortex; assay type: in vivo
Method: Wild-type male mice were used as test animals. The mice had free access to water and standard mouse chow. […] The same amount of physiological saline was intraperitoneally administered to the control group. A sample liquid was prepared by suspending Compound 011 (test compound) in PBS. […] The same amount of PBS was orally administered to the control group. […] Additionally, the mice that were not administered with cisplatin were treated in a similar manner, and the blood and kidneys were collected. The mice were thus divided into four groups. The mice were perfused transcardially with PBS (pH of 7.4). The collected kidneys were sliced, post-fixed in 4% PFA (paraformaldehyde), and embedded in paraffin or frozen in OCT compound to obtain section samples of renal cortex. The section samples of the four groups were stained with PAS (Periodic acid-Schiff) and observed under an optical microscope (400×) (FIG. 1). The renal tubular injury was quantitatively evaluated using PAS-stained section samples. […] The renal tubular injury was defined to be cellular necrosis, tubular dilatation, and cast formation.

[3] = system: Kidney Injury Induced by Cisplatin Administration; assay: Plasma creatinine and urea nitrogen in cisplatin-treated mice; assay type: in vivo
Method: Wild-type male mice were used as test animals. […] The same amount of physiological saline was intraperitoneally administered to the control group. […] The same amount of PBS was orally administered to the control group. […] Plasma was obtained from the blood collected from the mice to measure the creatinine concentration and the urea nitrogen concentration (n=2 to 4 for each group). The creatinine concentration was measured by using a BioAssay Systems' Creatinine Assay Kit (DICT-500), and the urea nitrogen concentration was measured by using a Wako BUN-test. […] Additionally, in FIG. 3, “Cre” represents the creatinine concentration and “BUN” represents the serum urea nitrogen concentration.

[4] = system: autophagy flux (GFP-LC3 dots per proximal tubule); assay: Autophagy flux in kidneys of GFP-LC3 transgenic mice after cisplatin, with or without chloroquine; assay type: in vivo
Method: The test animals were 8-week-old male autophagy-monitoring mice (GFP-LC3 transgenic mice). The mice had free access to water and standard mouse chow.
The test compound (compound 011) was suspended in PBS to prepare a sample liquid.
Six hours before anesthetization of the mice, a chloroquine solution was administered intraperitoneally as a lysosomal inhibitor at 50 μg/g body weight. Separately, a group in which the chloroquine solution was not administered was also prepared. The chloroquine solution was prepared by dissolving chloroquine (Sigma-Aldrich) in distilled water at a concentration of 5 mg/mL.
The autophagy flux was evaluated by quantifying GFP-LC3 dots (GFP-positive dots).
The kidney sections were immunostained with LRP2/Megalin (red), which is a marker for proximal tubular cells, and contrast-stained with DAPI (blue).
The number of GFP-LC3 dots (green) per proximal tubule in each group (n=5) was quantified in 10 high-magnification fields (600×), and the average values were used for evaluation.

[5] = cisplatin 15 mg/kg i.p. plus test compound 10 mg/kg orally, effect on cisplatin-induced increase
[6] = test compound 10 mg/kg orally, no cisplatin

SMILES	LC3-II protein level with Baf treatment relative to without Baf treatment (A549 cells)	degree of the LC3-II increase with Baf treatment compared with starvation (EBSS) (A549 cells)	number of p53-positive cells [1]	number of p62-positive dots [1]	renal tubular injury (PAS-stained renal cortex sections) ([2]; cisplatin 15 mg/kg i.p. plus test compound 10 mg/kg orally for 3 consecutive days, 3 days after cisplatin)	score of renal tubular injury (PAS injury score) ([2]; cisplatin 15 mg/kg i.p. plus test compound 10 mg/kg orally, 10-scale grade)	change in PAS-stained renal cortex versus vehicle administration group ([2]; test compound 10 mg/kg orally for 3 days, no cisplatin)	plasma creatinine concentration [3, 5]	serum urea nitrogen (BUN) concentration [3, 5]	plasma creatinine concentration [3, 6]	serum urea nitrogen (BUN) concentration [3, 6]	number of GFP-LC3 dots per proximal tubule ([4]; cisplatin 15 mg/kg i.p. plus test compound 10 mg/kg orally, 2 days after cisplatin, without chloroquine)	number of GFP-LC3 dots per proximal tubule ([4]; cisplatin plus test compound 10 mg/kg orally plus chloroquine 50 μg/g i.p. 6 hours before anesthetization)	number of GFP-LC3 dots per proximal tubule ([4]; cisplatin 15 mg/kg i.p. alone, without chloroquine)	number of GFP-LC3 dots per proximal tubule ([4]; cisplatin 15 mg/kg i.p. plus chloroquine on the second day, no test compound)
O=C(O)c1cnc(N2CCN(c3noc4cccc(C(F)(F)F)c34)CC2)c(Cl)c1 [Compound 011, 5-Chloro-6-(4-(4-(trifluoromethyl)benzo[d]isoxazol-3-yl)piperazin-1-yl)nicotinic acid]	significant increase in LC3-II with the Baf treatment	comparable to that of starvation	clearly reduced	clearly reduced	clearly attenuated renal tubular injury caused by cisplatin	clearly attenuated	no apparent change	clearly suppressed	clearly suppressed	little or no change	little or no change	a decrease in GFP-LC3 dots	significantly increased	–	–
N.N.[Cl][Pt][Cl] [cisplatin, reference compound]	–	–	–	–	–	–	–	–	–	–	–	–	–	increased GFP-LC3 dots	no increase in GFP-LC3 dots
